These molecules were tested on HCV replicon (assay: Cell-Based HCV Replicon Assay). Conditions: HCV Replicon assay, EC90 range, Table VI; read-out: EC90.
How it was run: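 Replicon cells, 5000/well, treated 3 days with 10 serial 2-fold dilutions (top 25 μM to 1 μM) in 0.5% DMSO, 10% FBS. Replicon RNA measured by multiplex Taqman RT-PCR (NS5B amplicon, GAPDH control); EC50/EC90 = concentration giving ΔCT of 1/3.2 over baseline from sigmoid fit.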
With `Cc1nc(NC(C)C2CC(F)(F)C2)nc(N[C@@H]2C[C@H](CO)[C@@H](O)[C@H]2O)c1-c1nc2c(C)nccc2s1` (stereo partly shown) [Example 5308] the EC90 was < 0.5 µM.

Same assay, conditions: Hepatitis C virus, 72 h, read-out: EC90 (uM) range
In the case of `Cc1nccc2sc(-c3cnc(N[C@H](C)C4CCC4)nc3N[C@@H]3C[C@H](CO)[C@@H](O)[C@H]3O)nc12` [Example 4915], the EC90 is reported as > 1 µM.

Same assay, conditions: Hepatitis C virus, 72 h; Table IV; replicon cells, day 3, real time PCR; EC90 = concentration for ΔCT=3.2 over baseline; read-out: EC90
With `Cc1nc(NCC2CC2)nc(N[C@@H]2C[C@H](C(C)(F)F)[C@@H](O)[C@H]2O)c1-c1nc2c(C3CC3)nccc2s1` [Example 3056] the EC90 was 0.007 µM. Molecule `Cc1nc(NCc2c(F)cccc2F)nc(N[C@@H]2C[C@H](CS(C)(=O)=O)[C@@H](O)[C@H]2O)c1-c1nc2c(C3CC3)nccc2s1` [Example 3538] has an EC90 of 0.007 µM. `Cc1nc(NCC2CC2)nc(N[C@@H]2C[C@H](CS(=O)(=O)c3ccccc3)[C@@H](O)[C@H]2O)c1-c1nc2c(C3CC3)nccc2s1` [Example 3744] showed an EC90 of 0.044 µM. With `Cc1nc(NCC(F)(F)C(F)(F)F)nc(N[C@@H]2C[C@H](C(C)(C)O)[C@@H](O)[C@H]2O)c1-c1nc2c(C)nccc2s1` [Example 4346] the EC90 was 0.043 µM. `Cc1nc(NCc2c(F)cc(F)cc2F)nc(N[C@@H]2C[C@H](CS(C)(=O)=O)[C@@H](O)[C@H]2O)c1-c1nc2c(C3CC3)nccc2s1` [Example 3563] gave an EC90 of 0.003 µM.

Same assay, conditions: Hepatitis C virus, 72 h; Table V, class codes; replicon cells, day 3, real time PCR; EC90 = concentration for ΔCT=3.2 over baseline; read-out: EC90 (uM) range
For `Cc1cc2sc(-c3c(C)nc(N[C@H](C)C4CCC4)nc3N[C@@H]3C[C@H](CO)[C@@H](O)[C@H]3O)nc2cn1` [Example 4912], the EC90 was < 0.5 µM. For `CNc1nc(C)c(-c2nc3c(C)nccc3s2)c(N[C@@H]2C[C@H](CO)[C@@H](OC)[C@H]2O)n1` [Example 4906], the EC90 was 0.5 to 5 µM. In the case of `CO[C@H](C)CNc1ncc(-c2nc3c(C)nccc3s2)c(N[C@@H]2C[C@H](C(C)(C)O)[C@@H](O)[C@H]2O)n1` [Example 4939], the EC90 is reported as < 0.5 µM. For `C[C@@H](Nc1ncc(-c2nc3c(C4CC4)nccc3s2)c(N[C@@H]2C[C@H](CS(C)(=O)=O)[C@@H](O)[C@H]2O)n1)C1CCC1` [Example 4918], the EC90 was < 0.5 µM. With `COCCNc1nc(C)c(-c2nc3c(C4CC4)nccc3s2)c(N[C@@H]2C[C@H](C(=O)Nc3ccccc3)[C@@H](O)[C@H]2O)n1` [Example 4949] the EC90 was < 0.5 µM. For `Cc1nc(N[C@H](C)c2ccc(OC(F)(F)F)cc2)nc(N[C@@H]2C[C@H](CO)[C@@H](O)[C@H]2O)c1-c1nc2cnc(C3CC3)cc2s1` [Example 4944], the EC90 was < 0.5 µM. Work on `C[C@@H](Nc1ncc(-c2nc3c(C4CC4)nccc3s2)c(N[C@@H]2C[C@H](CS(C)(=O)=O)[C@@H](O)[C@H]2O)n1)c1ccc(OC(F)(F)F)cc1` [Example 4921] yielded an EC90 of 0.5 to 5 µM. With `Cc1nc(N[C@H](C)c2ccc(OC(F)(F)F)cc2)nc(N[C@@H]2C[C@H](C(=O)NC(C)(C)C)[C@@H](O)[C@H]2O)c1-c1nc2c(C3CC3)nccc2s1` [Example 4947] the EC90 was < 0.5 µM.

Same assay, conditions: Hepatitis C virus; HCV Replicon assay, EC90 given as numeric bound, Table VI; read-out: EC90
With `COCCNc1nc(C)c(-c2nc3c(C)nccc3s2)c(N2C[C@H]3C[C@@H]2[C@H](O)[C@@H]3O)n1` [Example 5214] the EC90 was > 1 µM.

Same assay, conditions: Hepatitis C virus; HCV Replicon assay, EC90 range, Table VI; read-out: EC90
For `Cc1nc(N)nc(NC2(CO)CCCC2)c1-c1nc2c(C3CC3)nccc2s1` [Example 5124], the EC90 was < 0.5 µM. `Cc1nc(N[C@H](C)C2CC2)nc(N[C@@H]2C[C@H](C(C)(F)F)[C@@H](O)[C@H]2O)c1-c1nc2c(C3CC3)nccc2s1` [Example 5172] was tested, and the EC90 was < 0.5 µM. For `Cc1nc(NCC(C)(C)C)nc(N[C@@H]2C[C@H](C(C)(C)S(C)(=O)=O)[C@@H](O)[C@H]2O)c1-c1nc2c(C3CC3)nccc2s1` [Example 5074], the EC90 was < 0.5 µM. With `Cc1nc(NCC2CC2)nc(N[C@@H]2C[C@H](C(C)(C)S(=O)(=O)c3ccccc3)[C@@H](O)[C@H]2O)c1-c1nc2c(N)nccc2s1` [Example 5080] the EC90 was < 0.5 µM. In the case of `Cc1nc(NCc2c(F)cccc2F)nc(N[C@@H]2C[C@H](COc3c(F)cccc3F)[C@@H](O)[C@H]2O)c1-c1nc2c(C)nccc2s1` [Example 5206], the EC90 is reported as < 0.5 µM. In the case of `Cc1nc(NCC2(O)CC2)nc(N[C@@H]2C[C@H](C3(O)CCCC3)[C@@H](O)[C@H]2O)c1-c1nc2c(C)nccc2s1` [Example 5111], the EC90 is reported as < 0.5 µM. In the case of `Cc1nc(NCC2(C)CC2)nc(N[C@@H]2C[C@H](C(F)F)[C@@H](O)[C@H]2O)c1-c1nc2c(C3CC3)nccc2s1` [Example 5191], the EC90 is reported as < 0.5 µM. For `Cc1nc(NCC2(O)CCCC2)nc(N[C@H]2C=C[C@@H](CO)C2)c1-c1nc2c(C)nccc2s1` [Example 5158], the EC90 was < 0.5 µM. `CO[C@@H](CNc1nc(C)c(-c2nc3c(C4CC4)nccc3s2)c(N[C@@H]2C[C@H](CO)[C@@H](O)[C@H]2O)n1)c1ccc(F)cc1` [Example 5227] was tested, and the EC90 was < 0.5 µM. `Cc1nc(N)nc(N[C@@H]2C[C@H](C(C)(F)F)[C@@H](O)[C@H]2O)c1-c1nc2c(C3CC3)nccc2s1` [Example 5188] was tested, and the EC90 was < 0.5 µM. `CO[C@@H]1CCCC[C@H]1Nc1nc(C)c(-c2nc3c(C4CC4)nccc3s2)c(N[C@@H]2C[C@H](CO)[C@@H](O)[C@H]2O)n1` [Example 5141] was tested, and the EC90 was < 0.5 µM. With `CCC(O)(CC)[C@H]1C[C@@H](Nc2nc(N)nc(C)c2-c2nc3c(C)nccc3s2)[C@H](O)[C@@H]1O` [Example 5273] the EC90 was < 0.5 µM. With `Cc1nc(N)nc(N[C@@H]2C[C@H](COc3c(F)cccc3F)[C@@H](O)[C@H]2O)c1-c1nc2c(C)nccc2s1` [Example 5212] the EC90 was < 0.5 µM. For `Cc1nc(N[C@@H](CO)CC(C)C)nc(N[C@@H]2C[C@H](C(C)(C)O)[C@@H](O)[C@H]2O)c1-c1nc2c(C)nccc2s1` [Example 5162], the EC90 was < 0.5 µM. In the case of `Cc1nc(N)nc(N[C@@H]2C[C@H](C(C)C)[C@@H](O)[C@H]2O)c1-c1nc2c(C)nccc2s1` [Example 5286], the EC90 is reported as < 0.5 µM. `Cc1nc(NC(C)(C)C)nc(N[C@@H]2C[C@H](NC(=O)NC3CC3)[C@@H](O)[C@H]2O)c1-c1nc2c(C3CC3)nccc2s1` [Example 5095] was tested, and the EC90 was < 0.5 µM. For `Cc1nc(NCCS(=O)(=O)C(C)(C)C)nc(N[C@@H]2C[C@H](C(C)(C)O)[C@@H](O)[C@H]2O)c1-c1nc2c(C)nccc2s1` [Example 5250], the EC90 was < 0.5 µM. `COCC1(Nc2nc(NCC3CC3)nc(C)c2-c2nc3c(C)nccc3s2)CCCCC1` [Example 5201] was tested, and the EC90 was < 0.5 µM. `Cc1cc(S(=O)(=O)C[C@H]2C[C@@H](Nc3nc(NCC4CC4)nc(C)c3-c3nc4c(C)nccc4s3)[C@H](O)[C@@H]2O)ccc1F` [Example 5008] was tested, and the EC90 was < 0.5 µM. With `Cc1nc(N[C@H](C)C2CC2)nc(N[C@@H]2C[C@H](NC(=O)NC(C)(C)C)[C@@H](O)[C@H]2O)c1-c1nc2c(C3CC3)nccc2s1` [Example 5089] the EC90 was < 0.5 µM. With `Cc1nc(NCC2CC2)nc(N[C@@H]2C[C@H](C(C)(C)NS(C)(=O)=O)[C@@H](O)[C@H]2O)c1-c1nc2c(C)nccc2s1` [Example 5044] the EC90 was < 0.5 µM. For `Cc1nc(NCC(F)(F)C(F)(F)F)nc(N[C@H]2C=C[C@@H](CO)C2)c1-c1nc2c(C)nccc2s1` [Example 5165], the EC90 was < 0.5 µM. For `CO[C@H](C)CNc1nc(C)c(-c2nc3c(C)nccc3s2)c(N[C@@H]2C[C@H](C(C)(C)NS(C)(=O)=O)[C@@H](O)[C@H]2O)n1` [Example 5038], the EC90 was < 0.5 µM. In the case of `Cc1nc(NCc2c(F)cccc2F)nc(N[C@@H]2C[C@H](NC(=O)OCc3nccs3)[C@@H](O)[C@H]2O)c1-c1nc2c(C3CC3)nccc2s1` [Example 5084], the EC90 is reported as < 0.5 µM. With `CCc1nccc2sc(-c3c(C)nc(NCC(F)(F)F)nc3N[C@@H]3C[C@H](CS(=O)(=O)c4ccc(F)c(C)c4)[C@@H](O)[C@H]3O)nc12` [Example 5019] the EC90 was < 0.5 µM. For `Cc1nc(NCCCOCC(F)(F)F)nc(N[C@@H]2C[C@H](C(C)(C)O)[C@@H](O)[C@H]2O)c1-c1nc2c(C)nccc2s1` [Example 5208], the EC90 was < 0.5 µM. For `Cc1nc(N[C@H](C)C2CCC2)nc(N[C@@H]2C[C@H](C(C)(F)F)[C@@H](O)[C@H]2O)c1-c1nc2c(C3CC3)nccc2s1` [Example 5184], the EC90 was < 0.5 µM. With `COCCCNc1nc(C)c(-c2nc3c(C)nccc3s2)c(N[C@@H]2C[C@H](C(C)(C)O)[C@@H](O)[C@H]2O)n1` [Example 5161] the EC90 was < 0.5 µM. In the case of `Cc1nc(NCc2cn(C)cn2)nc(N[C@@H]2C[C@H](C(C)(C)O)[C@@H](O)[C@H]2O)c1-c1nc2c(C)nccc2s1` [Example 5252], the EC90 is reported as < 0.5 µM. In the case of `Cc1nc(NCC2CC(F)(F)C2)nc(N[C@@H]2C[C@H](C(F)F)[C@@H](O)[C@H]2O)c1-c1nc2c(C3CC3)nccc2s1` [Example 5182], the EC90 is reported as < 0.5 µM. In the case of `CO[C@H]1CCC[C@@H]1Nc1nc(C)c(-c2nc3c(C4CC4)nccc3s2)c(N[C@@H]2C[C@H](CO)[C@@H](O)[C@H]2O)n1` [Example 5147], the EC90 is reported as < 0.5 µM. In the case of `COC[C@@H](C)Nc1nc(C)c(-c2nc3c(C)nccc3s2)c(N[C@@H]2C[C@H](C(C)C)[C@@H](O)[C@H]2O)n1` [Example 5283], the EC90 is reported as < 0.5 µM. For `CCC(O)(CC)[C@H]1C[C@@H](Nc2nc(NC3CCOCC3)nc(C)c2-c2nc3c(C)nccc3s2)[C@H](O)[C@@H]1O` [Example 5271], the EC90 was < 0.5 µM. For `CCSCCNc1nc(C)c(-c2nc3c(C)nccc3s2)c(N[C@@H]2C[C@H](C(C)(C)O)[C@@H](OC)[C@H]2OC)n1` [Example 5267], the EC90 was < 0.5 µM. `Cc1nc(NCC2CC(F)(F)C2)nc(N[C@@H]2C[C@H](CO)C(O)[C@H]2O)c1-c1nc2c(C3CC3)nccc2s1` (stereo partly shown) [Example 5297] was tested, and the EC90 was < 0.5 µM. `CSCC[C@@H](CO)Nc1nc(C)c(-c2nc3c(C)nccc3s2)c(N[C@@H]2C[C@H](C(C)(C)O)[C@@H](O)[C@H]2O)n1` [Example 5251] was tested, and the EC90 was < 0.5 µM. `Cc1nc(NCC(F)(F)F)nc(N[C@@H]2C[C@H](C(C)(C)S(C)(=O)=O)[C@@H](O)[C@H]2O)c1-c1nc2c(C3CC3)nccc2s1` [Example 5079] was tested, and the EC90 was < 0.5 µM. For `CNS(=O)(=O)C[C@H]1C[C@@H](Nc2nc(NCC3CC3)nc(C)c2-c2nc3c(C)nccc3s2)[C@H](O)[C@@H]1O` [Example 5025], the EC90 was < 0.5 µM. For `COCCNc1nc(C)c(-c2nc3c(C)nccc3s2)c(N[C@@H]2C[C@H](C(C)(C)S(=O)(=O)c3ccccc3)[C@@H](O)[C@H]2O)n1` [Example 5077], the EC90 was < 0.5 µM.
